Experimental data as given in article PMC3466204 (PLoS ONE, 2012).
“And” between values parts separate entries of the source, which are not always exact repeats. Equal entries are not always repeated. Ends that are not written are not given here.

What was measured:
[1] = tested on: Lactococcus lactis HP; assay: Agarose-based assay of cell-free supernatants of S29X producing strains
In short: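 Deferred antagonism in 1% agarose underlay (10 mM sodium phosphate, pH 7.4) seeded with mid-log indicator bacteria at 2×10^7 CFU/mL. Cell-free supernatant or purified peptide placed in 4.6 mm wells, held 3 h at 30 °C (L. lactis), 37 °C (Gram-positives) or RT (Gram-negatives). Plates were then overlaid with GM17 or LB agarose and incubated overnight.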

[2] = tested on: S. mitis UCC5000; assay: Broth MIC, Gram positive; type: cell-based, Streptococcus mitis; settings: broth microtitre, BSA pre-treated plates, 10^5 cfu ml^−1, 2-fold dilutions from 10 µM, 16 h 37°C, purified peptide, mean of triplicate assays
Experimental: Minimum inhibitory concentration determinations for Gram positive organisms were carried out in triplicate in microtitre plates (Sarstedt). 96 well microtitre plates were pre-treated with bovine serum albumin (BSA) prior to addition of the peptides. Briefly, to each well of the microtitre plate 200 µL of phosphate buffered saline (PBS) containing 1% (w/v) bovine serum albumin (PBS/BSA) was added and incubated at 37°C for 30 min. The wells were washed with 200 µL PBS and allowed to dry. Target strains were grown overnight in the appropriate conditions and medium, subcultured into fresh broth and allowed to grow to an OD600 of ∼0.5, diluted to a final concentration of 10^5 cfu ml^−1 in a volume of 0.2 ml. Wild type nisin and nisin mutant peptides were adjusted to a 10 µM (S. mitis, B. cereus), 7.5 µM (L. monocytogenes), 5 µM (hVISA) 2.5 µM (MRSA, E. durans), or 500 nM (L. lactis strains) starting concentration and 2-fold serial dilutions of each peptide were added to the target strain.

[3] = tested on: C. sakazakii DPC 6440; assay: Agarose gel diffusion assay, purified peptide; type: cell-based, Cronobacter sakazakii; settings: purified peptide 60 µM
Experimental: (§1) Agarose-based deferred antagonism assays were carried out as follows: GM17/LB (0.03%) underlay was prepared with 10 mM sodium phosphate buffer (SPB) at pH 7.4 to which was added agarose (1% w/v agarose), autoclaved and cooled to 50°C. Bacteria grown to mid-logarithmic phase were harvested by centrifugation and washed with 10 mM SPB at pH 7.4. Bacteria were then added to 15 mls cooled underlay medium to reach a concentration of 2×10^7 colony-forming units (CFU)/mL. The inoculated medium was rapidly transferred into sterile Petri plates, allowed to solidify and dried. Wells (4.6 mm in diameter) were then made in the seeded plates. 10 µl volumes of cell-free supernatant from overnight nisin derivative producing cultures or resuspended purified peptides were then added to the wells and the plates incubated at 30°C (L. lactis) or 37°C (Gram positive strains) or RT (Gram negative strains) for 3 hours. Polymyxin B (Sigma Aldrich) was used at a concentration of 20 µg/ml. The plates were then overlaid with 15 mls of autoclaved double strength GM17 (L. lactis) or LB (Gram negatives) agarose (1% w/v agarose) overlay medium precooled to 50°C. The plates were then incubated overnight at the relevant temperature.

[4] = tested on: E. coli 0157-H7; assay: Agarose gel diffusion assay, purified peptide; type: cell-based; settings: purified peptide 60 µM
Experimental: as §1

[5] = tested on: Salmonella enterica serovar Typhimurium UK1; assay: Agarose gel diffusion assay, purified peptide; type: cell-based; settings: purified peptide 60 µM
Experimental: as §1

[6] = tested on: C. sakazakii DPC 6440; assay: Agarose gel diffusion assay, peptide alone or with polymyxin B nonapeptide (PMBN); type: cell-based, Cronobacter sakazakii
Experimental: as §1
Polymyxin B (PMB) is a cyclic lipodecapaptide produced by bacteria of the genus Paenibacillus that acts primarily on the Gram negative cell wall, leading to rapid permeability changes in the cytoplasmic membrane and ultimately cell death. […] To that end, C. sakazakii DPC 6440 cells were treated with purified nisin A, S29G and S29A peptides alone (30 µM) or in combination with PMBN at a concentration of 20 µg/ml and determined the antimicrobial activity by agarose gel diffusion assay (Fig. 5). […] When used in combination with PMBN, a substantial synergistic effect was clearly evident (Fig. 5) but in this instance no significant difference in efficacy was observed between nisin A or either of the derivatives S29A or S29G.

[7] = tested on: L. monocytogenes LO28; assay: Deferred antagonism assay of producing strains; type: cell-based; settings: L. monocytogenes LO28, data not shown
Experimental: (§2) Deferred antagonism assays were performed by replicating strains on GM17 agar plates and allowing them to grow overnight before overlaying with either GM17/BHI/TSB-YE/MH agar (0.75% w/v agar) seeded with the appropriate indicator strain. For higher throughput screening of the S29X bank, deferred antagonism assays were performed by replicating strains using a 96 pin replicator (Boekel) or spotting 5 µl of a fresh overnight culture on GM17 agar plates and allowing them to grow overnight. Following overnight growth the strains were subjected to UV radiation for 30 minutes prior to overlaying with either GM17/BHI/TS/MH agar (0.75% w/v agar) seeded with the appropriate indicator.

[8] = tested on: S. aureus RF122; assay: Deferred antagonism assay of producing strains; type: cell-based
Experimental: as §2

[9] = tested on: S. aureus SA113; assay: Deferred antagonism assay of producing strains; type: cell-based; settings: zone of inhibition around producer colony
Experimental: as §2

Q: “S29G: bioengineered nisin A derivative with a serine to glycine change at position 29 (ITSISLCTPGCKTGALMGCNMKTATCHCGIHVSK; thioether (positions not given here); not fully specified (residues 2, 5, 33, bridges); UniProt P13068 24-57, looked up, variant S29G)” was tested. Which “Zone Diameter (mm)” value ([1]; agarose (1%) GM17 assay, 10 µl cell-free supernatant of overnight producing culture in 4.6 mm wells, L. lactis HP, 30°C) did it give?
A: 15.4±0.5 mm

Q: And the “% difference (zone relative to wild type)” value ([1]; agarose assay of supernatants against L. lactis HP, wild type serine = 100)?
A: 101%

Q: What about the MIC [2] of the same substance?
A: 8.38 mg/L and 2.5 µM

Q: And the “Zone of inhibition, agarose gel diffusion” value (“Zone of inhibition” for short) ([3]; C. sakazakii DPC 6440, mean of triplicate assays)?
A: 10.79±0.16 mm

Q: What about the “Zone as % wt” value ([3]; C. sakazakii DPC 6440, relative to nisin A) of the same substance?
A: 110 % wt

Q: And the “Zone of inhibition” value ([4]; E. coli 0157-H7, mean of triplicate assays)?
A: 11.10±0.05 mm

Q: What about the “Zone as % wt” value ([4]; E. coli 0157-H7, relative to nisin A) of the same substance?
A: 113 % wt

Q: What about the “Zone of inhibition” value ([5]; Salmonella Typhimurium UK1, mean of triplicate assays) of the same substance?
A: 10.94±0.24 mm

Q: And the “Zone as % wt” value ([5]; Salmonella Typhimurium UK1, relative to nisin A)?
A: 111 % wt

Q: What about the “Total area of inhibitory zone, peptide alone” value ([6]; purified peptide 30 µM alone) of the same substance?
A: 48.2±0.7 mm^2

Q: What about the “Total area of inhibitory zone, peptide + PMBN” value ([6]; purified peptide 30 µM in combination with polymyxin B nonapeptide (PMBN) 20 µg/ml) of the same substance?
A: 118.6±5.0 mm^2

Q: What about the “Bioactivity of producer relative to nisin A producer” value [7] of the same substance?
A: comparable to that of nisin A

Q: What about the “Bioactivity of producer relative to nisin A producer” value [8] of the same substance?
A: increases the bioactivity

Q: And the “Bioactivity of producer relative to nisin A producer” value [9]?
A: enhanced activity
